Test results: publication PMC7126728 (Bioorganic & Medicinal Chemistry, 2015)

What was measured:
HCMV = type: cell-based, human cytomegalovirus; details: HEL cell cultures
VZV = type: cell-based, varicella zoster virus; details: HEL cell cultures

SMILES: O=C(Cn1c(=O)ccn(COCCOCc2ccc(Br)cc2)c1=O)Nc1ccc(Oc2ccccc2)cc1 [Compound 20, 2-[3-[[2-(4-Bromobenzyloxy)ethoxy]methyl]-2,6-dioxo-3,6-dihydropyrimidin-1(2H)-yl]-N-(4-phenoxyphenyl)acetamide]
- anti-HCMV activity (in words) (HCMV): completely inactive
- anti-VZV activity (in words) (VZV): loss of activity

SMILES: O=C(Cn1c(=O)ccn(CCCCCCc2ccccc2)c1=O)Nc1ccc(Oc2ccccc2)cc1 [Compound 13, 2-[2,6-Dioxo-3-(6-phenylhexyl)-3,6-dihydropyrimidin-1(2H)-yl]-N-(4-phenoxyphenyl)acetamide]
- anti-HCMV activity (in words) (HCMV): loss of activity
- anti-VZV activity (in words) (VZV): loss of activity

SMILES: O=C(Cn1c(=O)c(I)cn(CCCCCOc2ccc(Br)cc2)c1=O)Nc1ccc(Oc2ccccc2)cc1 [Compound 7j, 2-[3-[5-(4-Bromophenoxy)pentyl]-5-iodo-2,6-dioxo-3,6-dihydropyrimidin-1(2H)-yl]-N-(4-phenoxyphenyl)acetamide]
- anti-HCMV activity (in words) (HCMV): completely inactive
- anti-VZV activity (in words) (VZV): completely inactive

SMILES: O=C(Cn1c(=O)ccn(Cc2ccc(Oc3ccc(Br)cc3)cc2)c1=O)Nc1ccc(Oc2ccccc2)cc1 [Compound 23, 2-[3-[4-(4-Bromophenoxy)benzyl]-2,6-dioxo-3,6-dihydropyrimidin-1(2H)-yl]-N-(4-phenoxyphenyl)acetamide]
- anti-VZV activity (in words) (VZV): loss of activity

SMILES: O=C(Cn1c(=O)ccn(CCCCOCc2ccc(Br)cc2)c1=O)Nc1ccc(Oc2ccccc2)cc1 [Compound 17, 2-[3-[4-(4-Bromobenzyloxy)butyl]-2,6-dioxo-3,6-dihydropyrimidin-1(2H)-yl]-N-(4-phenoxyphenyl)acetamide]
- anti-VZV activity (in words) (VZV): loss of activity

SMILES: O=C(Cn1c(=O)ccn(CCCCCOc2ccccc2)c1=O)Nc1ccc(Oc2ccccc2)cc1 [Compound 7a, 2-[2,6-Dioxo-3-(5-phenoxypentyl)-3,6-dihydropyrimidin-1(2H)-yl]-N-(4-phenoxyphenyl)acetamide]
- anti-VZV activity (in words) (VZV): inactive
